Reference: US4689340A, “Trihaloimidazole insecticide” (Sumitomo Chemical Company, Limited, priority 1985, dated 1987)
Like-named read-outs stand apart in the source and are kept apart here.

Columns and labels:
[1] = Acute Oral Toxicity Test to Mice (Test Example 1-1); details: mouse, in vivo; for selectivity ratio: po, mice oral LD50 (a) / German cockroach LD50 (b), read-out: Safety coefficient (a)/(b); for LD50 at 168 h: oral (stomach), corn oil, male ICR mice, 7 days' observation
Description: 1-1 Acute Oral Toxicity Test to Mice
(§1) The present compounds and the control were each diluted with corn oil to prescribed concentrations, and the dilute solutions obtained were forcedly administered to the stomach of six-week old male mice of ICR strain weighing 24 to 31 g, to which no food had been given for about 20 hours, at a rate of 0.1 ml/10 g of body weight. […] The number of the dead and alive was examined by seven day's observation to obtain LD50 value (50% lethal dosage) (5 mice per group). 1-2 Insecticidal activity test to German cockroach
The results of the acute oral toxicity test to mice and insecticidal activity test to German cockroaches on the test compounds are shown in Table 3. It is apparent from the table that the present compounds have the characteristics that the toxicity to the warm-blooded animal is low and the insecticidal activity on the insect pest is high. In order to make this characteristics clearer, the following safety coefficient was obtained from the test results. [formula]

[2] = test system: German cockroach (Blattella germanica); assay: Insecticidal activity test to German cockroach, topical application (Test Example 1-2); type: in vivo, strain low susceptible to pyrethroids; details: 48 h, read-out: Insecticidal activity on German cockroaches LD50 value (b)
Description: as §1
The present compounds and the control were each diluted with acetone to prescribed concentrations and topically applied to the ventral thorax of the male adults of German cockroach (Blattella germanica) which belong to a strain low susceptible to pyrethroids, at a rate of 1 μl/adult. After application, the adults were bred on bait and water in a polyethylene cup. After two days, the number of the dead and alive was examined to obtain LD50 value (10 adults per group; two replications).

[3] = test system: smoky brown cockroach (Periplaneta fuliginosa); assay: Topical application insecticidal test on smoky brown cockroach (Test Example 2); type: in vivo; details: Validiblatta fuliginosa, 48 h
Description: The present compounds and the control were each diluted with acetone and topically applied to the ventral thorax of the male adults of smoky brown cockroach (Periplaneta fuliginosa) at a rate of 10μg a.i./adult. After application, the adults were bred on bait and water in a polyethylene cup. After two days, the number of the dead and alive was examined to obtain a mortality (5 adults per group; two replications).

[4] = test system: German cockroach (Blattella germanica); assay: Heating fumigant test in (70 cm)^3 glass chamber (Test Example 3); type: in vivo, strain low susceptible to pyrethroids; details: for mortality at 40 mg/m3, 40 mg/m3: Blattella germanica, 48 h
Description: (§2) One hundred mg of each of the present compounds (1) to (7) is dissolved in a proper amount of acetone, and a porous ceramic plate of 4.0 cm×4.0cm×1.2 cm (thick) is impregnated with this solution to obtain the heating fumigant of each compound.
Four polyethylene cups (inside diameter, 10 cm; height, 8 cm) coated with butter at the inside surface were set at the four corners, respectively, of the bottom of a (70 cm)^3 glass chamber (0.34 m^3). Ten male adults per group of German cockroach (Blattella germanica) which belongs to a strain low susceptible to pyrethroids, were liberated in each of two polyethylene cups, and 10 female adults per group of the insect were liberated in each of the remaining two. An electric heater was set at the center of the bottom of the glass chamber, and each of the porous ceramic plates impregnating the present compounds and the control according to Formulation example 8 (13.7 mg/plate: 40 mg/m^3), was placed thereon. The plate was heated to about 200° C. by applying current for 20 minutes. The number of knocked-down insects with the lapse of time was examined to obtain KT50 (50% knocked-down time). Eighty minutes after current application was started, the cups containing the test insects were taken out of the chamber, and the test insects were bred on water and bait. After two days, the number of the dead and alive was examined to obtain a mortality.

[5] = test system: German cockroaches (Blattella germanica); assay: Heating fumigant test in (183 cm)^3 Peet Grady's chamber (Test Example 4); type: in vivo, strain low susceptible to pyrethroids; details: for mortality at 10 mg/m3, 10 mg/m3: Blattella germanica, 72 h
Description: as §2
At the bottom of a (183 cm)^3 Peet Grady's chamber (6.1 m^3) were placed three polyethylene cups (inside diameter, 10 cm; height, 8 cm) coated with butter at the inside surface, and 20 adult German cockroaches (10 males and 10 females) (Blattella germanica), which belong to a strain low susceptible to pyrethroids were liberated in each cup. An electric heater was set at the center of the bottom of the chamber, and each of the porous ceramic plates impregnated with the present compounds and the control according to Formulation example 8 (61 mg/plate: 10 mg/m^3), was placed thereon. The plate was heated to about 200° C. by applying current for 70 minutes. The number of knocked-down insects with the lapse of time was examined to obtain KT50 value (50% knocked-downtime). Eighty minutes after current application was started, the cups containing the test insects were taken out of the chamber, and the test insects were bred on water and bait. After three days, the number of the dead and alive was examined to obtain a mortality.

[6] = test system: German cockroach (Blattela germanica); assay: Oil spray direct spray knock-down test, susceptible strain (Test Example 5); type: in vivo; details: 0.6 ml of 0.1% oil spray
Source text: (§3) […] of the present compound (1), 2 parts of xylene and 97.8 parts of kerosene are mixed to obtain an oil spray.
(§4) Two groups of five male and five femlae adults per group of German cockroach (Blattela germanica), one group belonging to a susceptible strain and the other belonging to a strain low susceptible to pyrethroids,were liberated in a polyethylene cup of 9 cm in diameter thinly coated with vaseline at the inside surface. After covering the cup with a 16-mesh nylon gauze, the cup was placed on the bottom of a glass cylinder (inside diameter, 10 cm; height, 37 cm). Thereafter 0.6 ml of each of the 0.1% oil sprays of the present compounds and the control, prepared according to Formulation example 1, was directly sprayed onto the adults by means of a spray gun under 0.6 atmospheric pressure from the top of the cylinder. The number of knocked-down insects with the lapse of time was counted to obtain KT50 value (50% knocked-down time) (two replications).

[7] = test system: German cockroach (Blattela germanica); assay: Oil spray direct spray knock-down test, strain low susceptible to pyrethroids (Test Example 5); type: in vivo; details: 0.6 ml of 0.1% oil spray
Source text: as §3, §4

cockroach = assay: Insecticidal activity as cockroach-controlling insecticides (general statement); type: in vivo; details: among the listed cockroach-controlling compounds
[8] = ceramic plate heating fumigant, 13.7 mg/plate: 40 mg/m^3, 0.34 m^3 chamber
[9] = ceramic plate heating fumigant, 61 mg/plate: 10 mg/m^3, 6.1 m^3 chamber
[10] = ceramic plate heating fumigant, 13.7 mg/plate: 40 mg/m^3, 0.34 m^3 chamber, after two days, read-out: Mortality (%)
[11] = ceramic plate heating fumigant, 61 mg/plate: 10 mg/m^3, 6.1 m^3 chamber, after three days, read-out: Mortality (%)

SMILES | selectivity ratio [1] | LD50 at 168 h [1] | LD50 [2] | mortality at 0.01 mg [3] | mortality at 40 mg/m3, 40 mg/m3 [4] | KT50 value (50% knocked-down time) [4, 8] | mortality at 10 mg/m3, 10 mg/m3 [5] | KT50 value (50% knocked-down time) [5, 9] | Susceptible strain KT50 value [6] | Strain low susceptible to pyrethroids KT50 value [7] | insecticidal activity (in words) (cockroach) | mortality at 40 mg/m3, 40 mg/m3 [4, 10] | mortality at 10 mg/m3, 10 mg/m3 [5, 11] | mortality at 0.01 mg ([3]; 10μg a.i./adult, male adults, after two days, read-out: Mortality (%))
Clc1nc(Cl)n(COCCCCBr)c1Cl [(1), 1-(4-bromobutoxymethyl)-2,4,5-trichloroimidazole] | > 50 | > 300 mg/kg | 6.4 mg/kg | 80% | 100% | 28 min | 100% | 38 min | 1.1 min | 0.70 min | most superior insecticidal activity |  |  | 
ClCCCCOCn1c(Br)nc(Br)c1Br [(4), 1-(4-chlorobutoxymethyl)-2,4,5-tribromoimidazole] |  |  |  |  |  | 58 min |  |  | 2.1 min | ≈ 0.5 minute |  | 90% |  | 
BrCCCCOCn1c(Br)nc(Br)c1Br [(3), 1-(4-bromobutoxymethyl)-2,4,5-tribromoimidazole] |  |  |  |  |  | 45 min |  | 77 min | 1.1 min | 1.2 min |  | 100% | 90% | 
CNC(=O)Oc1ccccc1OC(C)C [(E), Propoxur] | 5.6 | 39 mg/kg | 7 mg/kg |  |  | > 80 min |  | > 80 min | 6.9 min | 10 min |  | 0% | 0% | 
Clc1nc(Cl)n(COCCCCCCBr)c1Cl [(6), 1-(6-bromohexyloxymethyl)-2,4,5-trichloroimidazole] |  |  |  |  |  |  |  | 41 min |  |  |  |  | 95% | 
BrCCCCCCOCn1c(Br)nc(Br)c1Br [(7), 1-(6-bromohexyloxymethyl)-2,4,5-tribromoimidazole] |  |  |  |  |  | 65 min |  |  | 2.3 min | 0.72 min |  | 92.5% |  | 
CCCCOCn1c(Cl)nc(Cl)c1Cl [(A)] |  |  | > 10 mg/kg |  |  |  |  | > 80 min | > 20 min | > 20 min |  |  | 8% | 
BrCCOCn1c(Br)nc(Br)c1Br [(C)] | 16 | 110 mg/kg | 7 mg/kg |  |  |  | 40% | > 80 min | > 20 min | ≥ 20 min |  |  |  | 
CCCCCOCn1c(Cl)nc(Cl)c1Cl [(B)] |  |  | > 20 mg/kg |  |  | > 80 min |  | > 80 min | > 20 min | > 20 min |  | 47.5% | 0% | 40%
Clc1nc(Cl)n(COCCCCCBr)c1Cl [(5)] |  |  |  |  |  | 68 min |  |  |  |  |  | 87.5% |  | 
ClCCCCOCn1c(Cl)nc(Cl)c1Cl [(2), 1-(4-chlorobutoxymethyl)-2,4,5-trichloroimidazole] | > 50 | > 300 mg/kg | 6.2 mg/kg | 100% | 100% | 41 min | 80% | 63 min |  |  |  |  |  | 
ClCCOCn1c(Br)nc(Br)c1Br [(D)] | 18 | 170 mg/kg | 9.4 mg/kg |  |  |  | 3% | > 80 min | > 20 min | ≈ 20 minute |  |  |  | 
